Data reported in patent US7588788B2, “Immune modulation and anti-allergy activities of Zingiber zerumbet” (Wholesome Life Science Co., Ltd., priority 2004, dated 2009).

What was measured:
Th1/Th2 immune responses = assay: Active compound identification by in vitro bioactive screening of purification fractions; assay type: cell-based; settings: compound identified from active fractions
[1] = tested on: Rat Basophilic Leukemia-1 (RBL-1) cell, LTC4 secretion; assay: LTC4 released by A23187 stimulated leukemia cells (ELISA); assay type: cell-based; settings: compound identified from the most active fraction
Protocol: Cell culture and drug treatment: Rat Basophilic Leukemia-1 (RBL-1) was purchased from Food Industry Research and Development Institute (CCRC 60198, ATCC CRL-1378), and cultured in MEM-alpha medium (Gibco, 12000). All trans-retinoic acid (1 μg/ml) was added to a 3.5 cm diameter well (6-well plate) at 2×10^6 cells/2 ml/well. Plates were then incubated at 37° C. with 5% CO2 in air for 16 hr. Various volumes of ZZ samples were added to the wells to make the appropriate final concentrations (0, 0.5, 5, 50 μg/ml) and incubated for 2 more hours. A23187 (calcium ionophore) was added to each well to reach the final concentration of 10 μM to stimulate RBL-1 cells to release LTC4/cLTs for 15 min. The mediums in the wells were centrifuged at 5000 rpm for 10 min to obtain the supernatant for ELISA assay.
LTC4/cLTs ELISA assay: The supernatants of the cell cultures were diluted into appropriate concentrations before the EIA analysis for LTC4/cLTs. Analysis was performed according to the procedures provided by the manufacturer.

SMILES	increase of the IFN-γ/IL-4 gene expression ratio (Th1/Th2 immune responses)	effect of suppressing LTC4 [1]
C/C1=C\CC(C)(C)/C=C/C(=O)/C(C)=C/CC1 [Zerumbone, zerumbone]	active ingredient	–
COc1c(-c2ccc(O)cc2)oc2cc(O)cc(O)c2c1=O [5,7-dihydroxy-2-(4-hydroxy-phenyl)-3-methoxy-chromen-4-one]	–	active compound
